Test systems include SN12C; M14; SK-MEL-5; HT-29; OVCAR-4; UACC-257; TK-10; SK-OV-3; A549; SK-MEL-2; NCI-H460; COLO 205; HCT-15; SF-268; SR; RPMI-8226.
Assay in all cases: NCI tumour cell line growth inhibition, 48 h

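These data come from cells grown in 96-well plates and exposed to compound for 48 hours at five concentrations. The concentration for 50% growth inhibition is given as GI50.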 Activity calls are given as the source filed them. No stated cut-off is given here; in the data, active = GI50 up to about 1.1 µM and inactive = higher. Some results are limits rather than exact numbers.

For `CN(C)/C(=N\C#N)NCc1ccccc1`, the GI50 in the assay on SN12C, with M14, in the assay with SK-MEL-5, with HT-29, in the assay on OVCAR-4 and with UACC-257 was > 100 µM (inactive) each time. For the same molecule, the GI50 in the assay on TK-10, in the assay on SK-OV-3, with A549, in the assay with SK-MEL-2, with NCI-H460 and in the assay on COLO 205 was > 100 µM (inactive) each time. Moreover, the GI50 was over 100 µM with HCT-15 and > 100 µM (inactive) in the assay on SF-268.

Consider `CCCCn1/c(=N/C(=S)N(C)C)ss/c1=N\C(=S)N(C)C`, for which the GI50 in the assay with SN12C, with M14, in the assay on HT-29, with SR, in the assay on RPMI-8226 and in the assay on OVCAR-4 was > 100 µM (inactive) each time. For the same molecule, the GI50 with UACC-257 is > 100 µM (inactive); with TK-10, 6.19 µM (inactive); in the assay with SK-OV-3, > 100 µM (inactive); with A549, > 100 µM (inactive); in the assay on SK-MEL-2, > 100 µM (inactive); in the assay with NCI-H460, > 100 µM (inactive). Further, the values for the GI50 with HCT-15 and with SF-268 were over 100 µM and > 100 µM (inactive), respectively.

As for `C1=C2/CC[C@H](Sc3ccccc3)C2C2(CCCCC/1)OCCO2` (some centres undefined), the GI50 with SN12C is 32.3 µM (inactive); in the assay with HT-29 it was 14.4 µM (inactive); with SR, 10.7 µM (inactive); with RPMI-8226, 17.6 µM (inactive); in the assay on UACC-257, 15.9 µM (inactive); with TK-10, 83.9 µM (inactive). In addition, the GI50 with SK-MEL-2 is 15.8 µM (inactive); with NCI-H460 it was 21.5 µM (inactive); with COLO 205, 21.6 µM (inactive); in the assay on SF-268 it was 39.2 µM (inactive).

Consider `O=C(O)c1ccccc1NC(=O)C1CCCCC1`, for which the GI50 in the assay on SN12C, with M14, in the assay on SK-MEL-5, in the assay with HT-29, with RPMI-8226 and in the assay with OVCAR-4 was > 100 µM (inactive) in each case. Further, the GI50 was > 100 µM (inactive) with UACC-257; > 100 µM (inactive) in the assay on TK-10; > 100 µM (inactive) in the assay on SK-OV-3; > 100 µM (inactive) in the assay on A549; > 100 µM (inactive) in the assay on SK-MEL-2; 66.1 µM (inactive) in the assay on NCI-H460. The values for the GI50 in the assay on COLO 205, in the assay on HCT-15 and with SF-268 were > 100 µM (inactive), over 100 µM and > 100 µM (inactive), respectively.

`CN(C)c1ccc(/C=C2\CNC/C(=C\c3ccc(N(C)C)cc3)C2=O)cc1`: the GI50 in the assay on SN12C was 26.5 µM (inactive); with M14 it was 86.7 µM (inactive); in the assay with SK-MEL-5 it was 65.5 µM (inactive); with HT-29, 10.9 µM (inactive); in the assay with SR, 8.81 µM (inactive); with RPMI-8226 it was 54.6 µM (inactive). Also, the GI50 was 13.3 µM (inactive) with OVCAR-4; 22.5 µM (inactive) in the assay on UACC-257; 33.3 µM (inactive) in the assay with TK-10; > 100 µM (inactive) with SK-OV-3; 27.4 µM (inactive) with A549; 15.5 µM (inactive) in the assay on NCI-H460. For the same molecule, the GI50 in the assay on COLO 205 was 45.1 µM (inactive); in the assay with HCT-15, 4.46 µM; in the assay on SF-268, > 10 µM (inactive).

On to `O=C(CCC1C(=O)NC(=S)NC1=O)c1ccc2ccccc2c1`, for which the GI50 with SN12C, in the assay on M14, with SK-MEL-5, with HT-29, in the assay with SR and with OVCAR-4 was > 100 µM (inactive) in each case. Further, the GI50 with UACC-257, with TK-10, with SK-OV-3, in the assay on A549, in the assay on SK-MEL-2 and with NCI-H460 was > 100 µM (inactive) throughout. Moreover, the GI50 is > 100 µM (inactive) in the assay on COLO 205, over 100 µM in the assay with HCT-15 and > 100 µM (inactive) with SF-268.

As to `CN[C@@H](C)[C@H](NC)c1ccccc1`, the GI50 with SN12C, in the assay with M14, in the assay on SK-MEL-5, with HT-29, in the assay with RPMI-8226 and in the assay with UACC-257 was > 100 µM (inactive) in each case. The GI50 is > 100 µM (inactive) in the assay with TK-10; > 100 µM (inactive) in the assay with SK-OV-3; > 100 µM (inactive) in the assay on A549; > 100 µM (inactive) in the assay on COLO 205; 33.3 µM in the assay with HCT-15.

Turning to `C[C@@H]1OC2(O)[C@H]3CCCN3S(=O)(=O)CCN2C1=O` (some centres undefined), the GI50 with SN12C, in the assay with M14, with SK-MEL-5, in the assay on HT-29, in the assay with SR and with RPMI-8226 was > 100 µM (inactive) in each case. In addition, the GI50 in the assay with OVCAR-4, in the assay with UACC-257, in the assay on TK-10, in the assay on SK-OV-3, with A549 and with NCI-H460 was > 100 µM (inactive) throughout. Further, the GI50 in the assay with COLO 205 was > 100 µM (inactive); with HCT-15, over 100 µM; in the assay on SF-268, > 100 µM (inactive).

`COc1ccc2cc(C(=O)c3ccccc3C(=O)O)ccc2c1`: the GI50 in the assay on SN12C, in the assay with M14, in the assay on SK-MEL-5, in the assay on HT-29, in the assay on SR and in the assay on OVCAR-4 was > 100 µM (inactive) each time. For the same molecule, the GI50 with UACC-257, in the assay with TK-10, in the assay with SK-OV-3, in the assay on A549, in the assay on SK-MEL-2 and in the assay on NCI-H460 was > 100 µM (inactive) in each case. For the same molecule, the GI50 is > 100 µM (inactive) in the assay on COLO 205, over 100 µM in the assay on HCT-15 and > 100 µM (inactive) in the assay on SF-268.

As to `CN(C)c1ccc2c(=O)c3ccccc3oc2n1`, the GI50 in the assay with SN12C was > 100 µM (inactive); with M14, > 100 µM (inactive); in the assay on SK-MEL-5, 38.6 µM (inactive); with RPMI-8226 it was > 100 µM (inactive); in the assay with OVCAR-4, > 100 µM (inactive); with UACC-257, > 100 µM (inactive). Also, the GI50 in the assay with TK-10, with SK-OV-3, with A549, in the assay on SK-MEL-2, in the assay on NCI-H460 and in the assay on COLO 205 was > 100 µM (inactive) throughout. The GI50 in the assay on HCT-15 was over 100 µM; in the assay with SF-268 it was > 100 µM (inactive).

Turning to `COc1ccc(NC(=O)C(=O)Cc2nc3ccc([N+](=O)[O-])cc3nc2O)c(OC)c1`, the GI50 in the assay with M14, in the assay on SK-MEL-5, in the assay with HT-29, in the assay with OVCAR-4, with UACC-257 and with TK-10 was > 100 µM (inactive) in each case. Moreover, the GI50 was > 100 µM (inactive) with SK-OV-3; > 100 µM (inactive) in the assay on A549; > 100 µM (inactive) with SK-MEL-2; > 100 µM (inactive) in the assay on NCI-H460; > 100 µM (inactive) in the assay with COLO 205; over 100 µM with HCT-15.

For the molecule `COc1ccc([Se]c2ccc(OC)cc2)cc1`, the GI50 with SN12C was > 100 µM (inactive); in the assay on M14, > 100 µM (inactive); in the assay with SK-MEL-5, 48.2 µM (inactive); in the assay with HT-29, 43.6 µM (inactive); in the assay on RPMI-8226 it was 24.4 µM (inactive); in the assay on UACC-257 it was 48.2 µM (inactive). The GI50 with TK-10, in the assay with SK-OV-3, with A549, in the assay on SK-MEL-2, with NCI-H460 and in the assay on COLO 205 was > 100 µM (inactive) throughout. In addition, the GI50 in the assay on HCT-15 was 68.1 µM; in the assay on SF-268 it was 56.9 µM (inactive).

`CCCCCCCCCCCC(=O)OC(COC(N)=O)COc1ccc(Cl)cc1` (centres undefined): the GI50 in the assay with SN12C was 26.7 µM (inactive); with M14, 20.1 µM (inactive); with SK-MEL-5 it was 17.6 µM (inactive); with HT-29, 20 µM (inactive); in the assay with RPMI-8226 it was 22.1 µM (inactive); with OVCAR-4, 19.1 µM (inactive). The GI50 with UACC-257 is 19.1 µM (inactive); in the assay on TK-10, 30.6 µM (inactive); in the assay on SK-OV-3, > 100 µM (inactive); in the assay with A549, 19.1 µM (inactive); in the assay on SK-MEL-2, 24.5 µM (inactive); with NCI-H460 it was 23.7 µM (inactive). Further, the GI50 with COLO 205 was 17 µM (inactive); in the assay with HCT-15, 28 µM; in the assay with SF-268, 20.6 µM (inactive).

Regarding `CC(=O)NC1C(=O)CC(c2ccccc2)N(C)C1c1ccccc1` (centres undefined), the GI50 in the assay on SN12C was > 100 µM (inactive); in the assay with M14 it was 61 µM (inactive); with SK-MEL-5, > 100 µM (inactive); in the assay on HT-29, 78 µM (inactive); in the assay with SR, > 100 µM (inactive); in the assay with OVCAR-4 it was > 100 µM (inactive). Further, the GI50 was > 100 µM (inactive) in the assay with UACC-257; > 100 µM (inactive) in the assay on TK-10; 26.3 µM (inactive) in the assay on SK-OV-3; > 100 µM (inactive) in the assay on A549; > 100 µM (inactive) in the assay with SK-MEL-2; > 100 µM (inactive) in the assay with NCI-H460. Besides, the GI50 in the assay with COLO 205 was > 100 µM (inactive); in the assay on HCT-15 it was over 100 µM; with SF-268, > 100 µM (inactive).

The values above are taken from ChEMBL document CHEMBL1201862, “PubChem BioAssay data set” (2004).
